Laboratory results from PubChem BioAssay AID588640 (The Scripps Research Institute Molecular Screening Center, 2011).
Active and inactive are the calls of the source.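 The calls were made as follows: active = p38 protein level shifted at least 30% from the DMSO control, either lower or higher; inactive = the rest.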

Test system: HCT116 p38 protein level, western blot, 24 h
Assay: total p38 protein level change, either direction, late-stage follow-up, counter-screen for KLF5 inhibitor project, cell-based, HCT116 colorectal carcinoma, chemiluminescent western blot (AID 588640)
Details: at 10 µM; for inhibition: stronger effect = higher value; for fold change: measured here: p38 band fold change vs DMSO

CN(C(=O)COC(=O)/C=C/c1cccc([N+](=O)[O-])c1)C1CCS(=O)(=O)C1 (stereo unspecified)
inhibition: 36.3%
fold change: 0.658

CN(C(=O)CNC(=O)/C=C/c1cccc(Cl)c1)C1CCS(=O)(=O)CC1
inhibition: 35.2%
fold change: 0.647

CN(C(=O)CNC(=O)/C=C/c1cccc(Cl)c1)C1CCS(=O)(=O)C1 (stereo unspecified)
inhibition: -15.7% (inactive)
fold change: 1.16
